Measured values taken from US12016865B2, “Methods and pharmaceutical compositions for treating candida auris in blood” (Cormedix Inc., priority 2017, dated 2024).

Experiments:
[1] = tested on: C. auris blood-borne pathogens; test: treating C. auris blood-borne pathogens (FIG. 2); parameters: species or system Candida auris; details: blood-borne infection of C. auris
Source text: FIG. 2 is a table showing the effectiveness of treating a blood-borne infection of C. auris using taurolidine and/or taurolidine derivatives.

[2] = cited from earlier work
[3] = saturated solution in deionized water; cited from earlier work
[4] = water buffered at pH 7.2; cited from earlier work
[5] = stored at ambient conditions; cited from earlier work
Microbes = details: microbes killed and toxins inactivated; cited from earlier work
[6] = cited from earlier work; remark: listed apart in the source

Question: For O=S1(=O)CCN(CN2CCS(=O)(=O)NC2)CN1 [taurolidine, 4,4′-methylene-bis(tetrahydro-1,2,4-thiadiazine)-1,1,1′,1′,-tetraoxide], which “effect on C. auris blood-borne pathogens” value [1] is on record?
Answer: The value was “neutralize C. auris blood-borne pathogens”.

Question: And the “solubility in CHCl3” value ([2]; CHCl3)?
Answer: The value was “insoluble”.

Question: What about the “solubility in Dilute HCl” value ([2]; Dilute HCl) of the same compound?
Answer: The value was “soluble”.

Question: And the “solubility in Dilute NaOH” value ([2]; Dilute NaOH)?
Answer: The value was “soluble”.

Question: What about the “solubility in EtOH” value ([2]; EtOH) of the same compound?
Answer: The value was “sparingly soluble”.

Question: What about the “solubility in Water” value ([2]; Water, at 20 degrees C.) of the same compound?
Answer: Its value is 1%.

Question: What about the “pH of saturated solution” value [3] of the same compound?
Answer: Its value is 7.4.

Question: And the “apparent partition coefficient between octanol and water” value [4]?
Answer: Its value is “approximately 0.13”.

Question: And the “stability in the solid state” value [5]?
Answer: The value was “acceptable stability”.

Question: And the “destruction time in vitro” value (Microbes)?
Answer: Its value is “approximately 30 minutes”.

Question: What about the “cumulative dose shown safe and well tolerated” value ([6]; cumulative doses) of the same compound?
Answer: The value was > 300 g.

Question: What about the “systemic dose shown safe and well tolerated” value ([6]; systemic doses) of the same compound?
Answer: Its value is “exceeding 40 g/day”.
